Converted amounts (≈) assume the structure as drawn. Read-outs that look alike come from different tables or passages of the source.

Usually solubility stands for the dissolved amount per volume that the medium holds. In general, logP refers to a log measure of how a compound divides between an organic and an aqueous phase. The low end stands for a more hydrophilic compound, the high end for a more lipophilic compound. As usually defined, the IC50 is the concentration at which inhibition is half-maximal. The term Log P denotes the decadic logarithm of the partition coefficient of the neutral form, usually between octanol and water.

Series [1] in a line: Solubility measurements in injection media (excess powder, HPLC). It counts as physicochemical. The settings on record: for solubility at 72 h: thermodynamic from solid; for aqueous solubility as times that of the parent drug (PTX): relative to PTX 0.4 μg/mL. How it is done:
The flow rate was 1 mL/min, with the mobile phase starting at 50% acetonitrile and 50% water and transitioning to 60% acetonitrile and 40% water at 13 min, then returning to 50% acetonitrile and 50% water at 25 min. Chromatographic peaks of the three compounds were identified based on their retention times and chromatographic responses. Peak area measurements were utilized to regress calibration curves to determine each compound.
The test system was shaken at 25 °C for 72 h, then centrifugated at 10,000 rpm for 10 min. Each supernate was collected and 0.22 μm filtered off, then determined by HPLC.

Series [2] is described as follows: Log P by miniaturized shake flask method (n-octanol/water). It counts as physicochemical. The settings on record: shaken 24 h, mean ± SD, n = 4. The procedure:
Log P and was determined by a miniaturized shake flask method. Briefly, the organic phase consisted of n-octanol saturated with water. Respectively, the aqueous phase consisted of water saturated with n-octanol.

Series [3] concerns breast cancer cells MDA-MB-231. The series can be described thus: MTT cytotoxicity assay. Particulars: Homo sapiens. Format: cell-based. The procedure:
(§1) In vitro anti-cancer effects against cancer cells and safety to normal cells of the prodrugs were evaluated by cytotoxicity.
(§2) MDA-MB-231 cells were seeded in a 96-well transparent plate, at a density of 5000 cells/well. […] After 72 h incubation, the plates were washed with HBSS and MTT solution was added. The final concentration of MTT in each well was 0.5 mg/mL. Then 4 h later, the solution on the plate was removed and the content was dissolved with DMSO [33].The absorption was measured at 490 nm and cell viability was calculated, cell viability% = OD of treated cells/OD of untreated cells × 100% [51].

Series [4] concerns normal breast cells Hs578Bst. Put plainly: MTT cytotoxicity assay. It counts as cell-based. The procedure: as §1, §2
Series [5] has as its system ovarian cancer cells A2780. Put plainly: MTT cytotoxicity assay. Format: cell-based. The settings on record: Homo sapiens. For orientation: Formazan colour is commonly taken as a measure of viable cells.
In another series the test system is MDA-MB-231 cells. Put plainly: Annexin V-FITC/PI apoptosis assay (flow cytometry). The settings on record: MDA-MB-231, 1 μM, 24 h. Format: cell-based. How it is done: Cell apoptosis was tested by an Annexin V-FITC/PI staining assay and analyzed by flow cytometry, the result is illustrated in Figure 6. According to Figure 6a, the four regions represent different cell stages. Q1 represents necrotic cells ([…]), Q2 and Q3 represent late apoptotic cells (Annexin V+/PI+) and early apoptotic cells (Annexin V+/PI–), and Q4 represents normal cells (Annexin V–/PI–).
MDA-MB-231 cells were seeded in a 6-well transparent plate, at a density of 5 × 10^5 cells/well. […] After 24 h incubation, the cells were harvested by trypsin, washed with HBSS, and 1 mL of binding buffer (containing Annexin V-FITC and PI) was added, final concentration of Annexin V-FITC and PI were both 1 μg/mL [52]. After that, the test system was incubated in the dark for 10 min, then analysis was immediately conducted by flow cytometry. The fluorescence intensity of Annexin V-FITC was measured at an excitation/emission wavelength of 488/530 nm, the fluorescence intensity of PI was measured at an excitation/emission wavelength of 488/617 nm. Each assay was repeated in triplicate.
In general terms: In flow cytometry, cells or beads pass a laser one at a time.

The conditions of series [6]: cited from earlier work.
Series [7] is described as follows: Solubility of SG-PTX at various pH conditions. It counts as physicochemical. The procedure: An aqueous solution of different pH was adjusted by HCl or NaOH, Excess powder of SG-PTX was added to solutions of different pH, respectively. The test system was shaken at 25 °C for 72 h, then centrifugation at 10,000 rpm for 10 min. Each supernate was collected and 0.22 μm filtered off, then determined by HPLC.

Series [8] is described as follows: Solubility of SG-PTX in various formulations (surfactant solutions). It counts as physicochemical. The settings on record: for solubility at 72 h: 25 °C, aqueous with cosolvent or surfactant or cyclodextrin, thermodynamic from solid, no ethanol, read-out: solubility in formulation. The procedure: Solubility of SG-PTX in various formulations was tested, SG-PTX was added into formulations with different proportion (v/v) of water and surfactants. These solubility tests were carried out according to the same protocol as aqueous solubility assays.
Solutions of different surfactants (Cremophor EL, Tween-80, and PEG-400) were prepared at different concentrations of 2.5%, 5%, 10%, and 15% (v/v). Excess powder of SG-PTX was added into different formulations, respectively. The test system was shaken at 25 °C for 72 h, then centrifugation at 10,000 rpm for 10 min. Each supernate was collected and 0.22 μm filtered off, then determined by HPLC.

Where [9] appears, read: 25 °C, saline or isotonic, 5% glucose solution, 25 °C, shaken 72 h, mean ± SD, n = 4, read-out: Solubility, 5% Glucose.
The mark [10] stands for this setting: 25 °C, saline or isotonic, saline, 25 °C, shaken 72 h, mean ± SD, n = 4, read-out: Solubility, Saline.
[11] abbreviates: 25 °C, water, pure water, 25 °C, shaken 72 h, mean ± SD, n = 4, read-out: Solubility, Pure Water.

For `CC(=O)O[C@H]1C(=O)[C@]2(C)[C@@H](OC(=O)CCC(=O)OC3O[C@H](CO)[C@@H](O)[C@H](O)[C@H]3O)C[C@H]3OC[C@@]3(OC(C)=O)[C@H]2[C@H](OC(=O)c2ccccc2)[C@]2(O)C[C@H](OC(=O)[C@H](OC(=O)CCC(=O)OC3O[C@H](CO)[C@@H](O)[C@H](O)[C@H]3O)[C@@H](NC(=O)c3ccccc3)c3ccccc3)C(C)=C1C2(C)C` (stereo partly shown) [DG-PTX, C7 and C2′-double glycosylated paclitaxel], the solubility at 72 h in series [1] (setting [9]) is 34.8 ± 4.22 µg/mL (≈ 25.2 µM); in series [1] (setting [10]), 36.7 ± 2.05 µg/mL (≈ 26.6 µM); in [1] (setting [11]), 39 ± 5.66 µg/mL (≈ 28.3 µM). The “aqueous solubility as times that of the parent drug (PTX)” value in series [1] was found to be 97.4 times. Moreover, the logP at 24 h in [2] is 2.12 ± 0.08. Besides, the IC50 is 395 nM in series [3] (MDA-MB-231, 72 h); more than 2000 nM in series [4] (Hs578Bst, 72 h); 1610 nM in series [5] (A2780, 72 h). Further, in the series on MDA-MB-231 cells, the “total percentage of apoptotic cells (late apoptosis + early apoptosis)” value (“total percentage of apoptotic cells” for short) was 14.6%.
Turning to `CC(=O)O[C@H]1C(=O)[C@@]2(C)[C@H]([C@H](OC(=O)c3ccccc3)[C@]3(O)C[C@H](OC(=O)[C@H](O)[C@@H](NC(=O)c4ccccc4)c4ccccc4)C(C)=C1C3(C)C)[C@]1(OC(C)=O)CO[C@@H]1C[C@@H]2O` [PTX, Paclitaxel, reference compound], the solubility at 72 h is less than 1 µg/mL in series [1] (5% glucose solution, 25 °C, saline or isotonic, 5% glucose solution, 25 °C, shaken 72 h, mean ± SD, n = 4, read-out: Solubility, 5% Glucose); less than 1 µg/mL in series [1] (pure water, 25 °C, water, pure water, 25 °C, shaken 72 h, mean ± SD, n = 4, read-out: Solubility, Pure Water); less than 1 µg/mL in series [1] (saline, 25 °C, saline or isotonic, saline, 25 °C, shaken 72 h, mean ± SD, n = 4, read-out: Solubility, Saline). Further, the IC50 was determined as 30.5 nM in series [3] (MDA-MB-231, 72 h incubation, MTT, read-out: IC50); 632 nM in series [4] (Hs578Bst normal breast cells, 72 h incubation, MTT, read-out: IC50); 194 nM in series [5] (A2780, 72 h incubation, MTT, read-out: IC50). Further, the “total percentage of apoptotic cells” value with MDA-MB-231 cells was 37.5%. Besides, the “Log P” value in series [6] was 3.97 [27].
As to `CC(=O)O[C@H]1C(=O)[C@@]2(C)[C@H]([C@H](OC(=O)c3ccccc3)[C@]3(O)C[C@H](OC(=O)[C@H](OC(=O)CCC(=O)OC4O[C@H](CO)[C@@H](O)[C@H](O)[C@H]4O)[C@@H](NC(=O)c4ccccc4)c4ccccc4)C(C)=C1C3(C)C)[C@]1(OC(C)=O)CO[C@@H]1C[C@@H]2O` (stereo partly shown) [SG-PTX, C2′-single glycosylated paclitaxel], the solubility at 72 h in series [1] (setting [9]) was 17.9 ± 0.28 µg/mL (≈ 16 µM); in [1] (setting [10]) it was 17.83 ± 0.09 µg/mL (≈ 16 µM); in [1] (setting [11]) it was 17.9 µg/mL (≈ 16 µM); in series [7] (aqueous solution, pH adjusted with HCl or NaOH, aqueous buffer, thermodynamic from solid, pH 9 and pH 10, water and two common injection media, 25 °C) it was approximately 27 µg/mL (≈ 24.2 µM); in series [8] (2.5% (v/v) Cremophor EL in water) it was 807 µg/mL (≈ 723 µM); in series [8] (2.5% (v/v) Tween-80 in water), 468 µg/mL (≈ 419 µM). Also, the solubility at 72 h is 1320 µg/mL (≈ 1180 µM) in [8] (15% (v/v) Cremophor EL in water) and 961 µg/mL (≈ 861 µM) in series [8] (15% (v/v) Tween-80 in water). Besides, the “Solubility, Pure Water” value in series [1] (pure water, 25 °C, shaken 72 h, mean ± SD, n = 4) was 19.93 ± 4.07 µg/mL (≈ 17.9 µM). Also, the “aqueous solubility as times that of the parent drug (PTX)” value in series [1] was determined as 49.8 times. Moreover, the logP at 24 h in [2] was found to be 2.77 ± 0.16. Moreover, the IC50 was found to be 149 nM in series [3] (MDA-MB-231, 72 h); 1670 nM in [4] (Hs578Bst, 72 h); 1080 nM in series [5] (A2780, 72 h). Moreover, in the series with MDA-MB-231 cells, the “total percentage of apoptotic cells” value is on record as 21.23%. For the same molecule, in [7] (pH level of 1 to 8), the “change of solubility with pH” value was “no significant change”. The solubility in formulation result in [8] (PEG-400 in water, compared with Cremophor EL and Tween-80) is given as “the lowest”.

The values are drawn from paper PMC6321537 (Molecules, 2018).
